Experimental data published in paper PMC5218480 (PLoS ONE, 2017).

Tested on: MV-4-11 cells
Assay: Gene expression microarray analysis (Affymetrix PrimeView) and GSEA
Type: cell-based, human
Parameters: RFU PODN (11730768_x_at) / Fold change /veh PODN (11730768_x_at) / RFU LINC00158 (11744669_a_at) / Fold change /veh LINC00158 (11744669_a_at) / RFU DUSP10 (11751237_a_at) / Fold change /veh DUSP10 (11751237_a_at) / RFU ID3 (11757404_x_at) / Fold change /veh ID3 (11757404_x_at) / RFU PLEKHG5 (11737974_s_at) / Fold change /veh PLEKHG5 (11737974_s_at) / RFU LRRC4B (11730491_at) / Fold change /veh LRRC4B (11730491_at) / RFU GIMAP4 (11747438_a_at) / Fold change /veh GIMAP4 (11747438_a_at) / RFU KRT8 (11758183_x_at) / Fold change /veh KRT8 (11758183_x_at) / RFU CNN1 (11734310_a_at) / Fold change /veh CNN1 (11734310_a_at) / RFU VPS37D (11726825_at) / Fold change /veh VPS37D (11726825_at) / RFU C10orf10 (11716522_x_at) / Fold change /veh C10orf10 (11716522_x_at) / RFU KIR2DL2 /// KIR2DL4 /// KIR2DL5A /// KIR2DL5B /// KIR2DS1 /// KIR2DS2 /// KIR2DS3 /// KIR2DS4 /// KIR3DL3 /// KIR3DL3 /// KIR3DS1 (11738374_at) / Fold change /veh KIR2DL2 /// KIR2DL4 /// KIR2DL5A /// KIR2DL5B /// KIR2DS1 /// KIR2DS2 /// KIR2DS3 /// KIR2DS4 /// KIR3DL3 /// KIR3DL3 /// KIR3DS1 (11738374_at) / RFU C1QL1 (11718748_at) / Fold change /veh C1QL1 (11718748_at) / RFU TMPRSS4 (11747572_a_at) / Fold change /veh TMPRSS4 (11747572_a_at) / RFU HAMP (11756126_x_at) / Fold change /veh HAMP (11756126_x_at) / RFU RNFT2 (11725882_a_at) / Fold change /veh RNFT2 (11725882_a_at) / RFU NR4A2 (11747474_a_at) / Fold change /veh NR4A2 (11747474_a_at) / RFU ABCC12 (11746883_a_at) / Fold change /veh ABCC12 (11746883_a_at) / RFU TMEM136 (11760407_x_at) / Fold change /veh TMEM136 (11760407_x_at) / RFU CLDN22 /// WWC2 (11732394_at) / Fold change /veh CLDN22 /// WWC2 (11732394_at) / RFU HLA-DPB1 (11760878_x_at) / Fold change /veh HLA-DPB1 (11760878_x_at) / RFU SPINT1 (11716480_a_at) / Fold change /veh SPINT1 (11716480_a_at) / RFU GAP43 (11754022_s_at) / Fold change /veh GAP43 (11754022_s_at) / RFU A4GNT (11735810_at) / Fold change /veh A4GNT (11735810_at) / RFU PRB3 (11715151_x_at) / Fold change /veh PRB3 (11715151_x_at) / RFU TUBB4B (11761932_at) / Fold change /veh TUBB4B (11761932_at) / RFU CAPN14 (11732068_a_at) / Fold change /veh CAPN14 (11732068_a_at) / RFU TMCC2 (11721928_a_at) / Fold change /veh TMCC2 (11721928_a_at) / RFU IRGQ (11745062_a_at) / Fold change /veh IRGQ (11745062_a_at) / RFU FAM174B (11720279_a_at) / Fold change /veh FAM174B (11720279_a_at) / RFU TMPRSS4 (11748680_a_at) / Fold change /veh TMPRSS4 (11748680_a_at) / RFU FAM212B (11763350_a_at) / Fold change /veh FAM212B (11763350_a_at) / RFU PLEKHG5 (11743358_a_at) / Fold change /veh PLEKHG5 (11743358_a_at) / RFU ZSCAN30 (11745921_a_at) / Fold change /veh ZSCAN30 (11745921_a_at) / RFU CMKLR1 (11741424_a_at) / Fold change /veh CMKLR1 (11741424_a_at) / RFU LOC101060620 /// MAPK8IP1 (11723275_at) / Fold change /veh LOC101060620 /// MAPK8IP1 (11723275_at) / RFU SPTSSB (11747773_x_at) / Fold change /veh SPTSSB (11747773_x_at) / RFU PRSS12 (11739890_at) / Fold change /veh PRSS12 (11739890_at) / RFU BIN1 (11741810_x_at) / Fold change /veh BIN1 (11741810_x_at) / RFU WNT11 (11732464_a_at) / Fold change /veh WNT11 (11732464_a_at) / RFU C10orf10 (11716521_a_at) / Fold change /veh C10orf10 (11716521_a_at) / RFU C5orf56 (11738089_at) / Fold change /veh C5orf56 (11738089_at) / RFU CYB561 (11721691_x_at) / Fold change /veh CYB561 (11721691_x_at) / RFU ANKRD19P (11752326_a_at) / Fold change /veh ANKRD19P (11752326_a_at) / RFU OR2T12 /// OR2T33 /// OR2T8 (11738714_s_at) / Fold change /veh OR2T12 /// OR2T33 /// OR2T8 (11738714_s_at) / RFU VCAN (11748164_a_at) / Fold change /veh VCAN (11748164_a_at) / RFU JSRP1 (11732532_at) / Fold change /veh JSRP1 (11732532_at) / RFU KRTAP10-11 (11738290_x_at) / Fold change /veh KRTAP10-11 (11738290_x_at) / RFU MYO3A (11730013_a_at) / Fold change /veh MYO3A (11730013_a_at) / RFU EBF3 (11725865_a_at) / Fold change /veh EBF3 (11725865_a_at) / RFU CAMK2N1 (11719241_x_at) / Fold change /veh CAMK2N1 (11719241_x_at) / RFU C5orf56 (11738088_a_at) / Fold change /veh C5orf56 (11738088_a_at) / RFU OLFML3 (11715873_a_at) / Fold change /veh OLFML3 (11715873_a_at) / RFU LOC100653217 /// NTM (11731650_a_at) / Fold change /veh LOC100653217 /// NTM (11731650_a_at) / RFU MAPK11 (11762145_a_at) / Fold change /veh MAPK11 (11762145_a_at) / RFU FIZ1 (11724087_x_at) / Fold change /veh FIZ1 (11724087_x_at) / RFU OASL (11726364_x_at) / Fold change /veh OASL (11726364_x_at) / RFU SOX15 (11748057_x_at) / Fold change /veh SOX15 (11748057_x_at) / RFU CD79A (11719716_a_at) / Fold change /veh CD79A (11719716_a_at) / RFU HIST1H1D (11736915_at) / Fold change /veh HIST1H1D (11736915_at) / RFU CASKIN2 (11723855_a_at) / Fold change /veh CASKIN2 (11723855_a_at) / RFU LOC730098 (11760151_x_at) / Fold change /veh LOC730098 (11760151_x_at) / RFU OR4N2 (11742367_at) / Fold change /veh OR4N2 (11742367_at) / RFU PRRT2 (11749266_a_at) / Fold change /veh PRRT2 (11749266_a_at) / RFU SNX32 (11753110_a_at) / Fold change /veh SNX32 (11753110_a_at) / RFU CDHR5 (11726645_a_at) / Fold change /veh CDHR5 (11726645_a_at) / RFU RCAN1 (11760418_a_at) / Fold change /veh RCAN1 (11760418_a_at) / RFU FAM167A (11723789_a_at) / Fold change /veh FAM167A (11723789_a_at) / RFU FAM26E (11764081_at) / Fold change /veh FAM26E (11764081_at) / RFU ISYNA1 (11749810_s_at) / Fold change /veh ISYNA1 (11749810_s_at) / RFU ACY1 (11761880_at) / Fold change /veh ACY1 (11761880_at) / RFU 11764098_at / Fold change /veh 11764098_at / RFU SAMD14 (11745864_x_at) / Fold change /veh SAMD14 (11745864_x_at) / RFU NPB (11741838_a_at) / Fold change /veh NPB (11741838_a_at) / RFU TMPRSS6 (11731388_a_at) / Fold change /veh TMPRSS6 (11731388_a_at) / RFU KRTAP10-2 (11738614_at) / Fold change /veh KRTAP10-2 (11738614_at) / RFU ARHGAP8 /// PRR5-ARHGAP8 (11727945_x_at) / Fold change /veh ARHGAP8 /// PRR5-ARHGAP8 (11727945_x_at) / RFU KRTAP5-7 /// NADSYN1 (11734609_at) / Fold change /veh KRTAP5-7 /// NADSYN1 (11734609_at) / RFU RASL12 (11751679_a_at) / Fold change /veh RASL12 (11751679_a_at) / RFU CDKN2B (11736163_a_at) / Fold change /veh CDKN2B (11736163_a_at) / RFU PRF1 (11729649_at) / Fold change /veh PRF1 (11729649_at) / RFU, ZNF638 /// ZNF638-IT1 / Fold change vs veh, ZNF638 /// ZNF638-IT1 / RFU, PANK3 / Fold change vs veh, PANK3 / RFU, SH3YL1 / Fold change vs veh, SH3YL1 / RFU, ZEB2 / Fold change vs veh, ZEB2 / RFU, NRIP1 / Fold change vs veh, NRIP1 / RFU, PTTG1IP / Fold change vs veh, PTTG1IP / RFU, CAPN2 / Fold change vs veh, CAPN2 / RFU, MED14 / Fold change vs veh, MED14 / RFU, SNORA58 / Fold change vs veh, SNORA58 / RFU, C1orf63 / Fold change vs veh, C1orf63 / RFU, LRRFIP1 / Fold change vs veh, LRRFIP1 / RFU, NDUFAF7 / Fold change vs veh, NDUFAF7 / RFU, SLC12A2 / Fold change vs veh, SLC12A2 / RFU, IBTK / Fold change vs veh, IBTK / RFU, ESF1 / Fold change vs veh, ESF1 / Fold change vs veh, TMEM50B / RFU, TAOK1 / Fold change vs veh, TAOK1 / RFU, ACBD3 / Fold change vs veh, ACBD3 / RFU, TMA16 / Fold change vs veh, TMA16 / RFU, RWDD3 / Fold change vs veh, RWDD3 / RFU, BCAT1 / Fold change vs veh, BCAT1 / RFU, EDEM3 / Fold change vs veh, EDEM3 / RFU, TMEM33 / Fold change vs veh, TMEM33 / RFU, WDR75 / Fold change vs veh, WDR75 / RFU, AHCTF1 / Fold change vs veh, AHCTF1 / RFU, TFRC / Fold change vs veh, TFRC / RFU, ZDHHC17 / Fold change vs veh, ZDHHC17 / RFU, NOM1 / Fold change vs veh, NOM1 / RFU, ARL8B / Fold change vs veh, ARL8B / RFU, ZBTB11 / Fold change vs veh, ZBTB11 / RFU, TAMM41 / Fold change vs veh, TAMM41 / RFU, KIAA1704 /// LOC100996395 / Fold change vs veh, KIAA1704 /// LOC100996395 / RFU, ING1 / Fold change vs veh, ING1 / RFU, TRMT61B / Fold change vs veh, TRMT61B / RFU, FUBP3 / Fold change vs veh, FUBP3 / RFU, TP53 / Fold change vs veh, TP53 / RFU, TNKS2 / Fold change vs veh, TNKS2 / RFU, ZFP14 / Fold change vs veh, ZFP14 / RFU, ACTR2 / Fold change vs veh, ACTR2 / RFU, PPP3R1 / Fold change vs veh, PPP3R1 / RFU, PIK3R1 / Fold change vs veh, PIK3R1 / RFU, HNRNPA1 / Fold change vs veh, HNRNPA1 / RFU, RNF170 / Fold change vs veh, RNF170 / RFU, ZNF28 / Fold change vs veh, ZNF28 / RFU, RNGTT / Fold change vs veh, RNGTT / RFU, OGT / Fold change vs veh, OGT / RFU, BRD1 / Fold change vs veh, BRD1 / RFU, MARS / Fold change vs veh, MARS / RFU, ZNF655 / Fold change vs veh, ZNF655 / RFU, FAHD1 / Fold change vs veh, FAHD1 / RFU, BDP1 / Fold change vs veh, BDP1 / RFU, LRRCC1 / Fold change vs veh, LRRCC1 / RFU, ARID1A / Fold change vs veh, ARID1A / RFU, ZNF146 / Fold change vs veh, ZNF146 / RFU, ZNF330 / Fold change vs veh, ZNF330 / RFU, GPN3 / Fold change vs veh, GPN3 / RFU, C9orf123 / Fold change vs veh, C9orf123 / RFU, N4BP2L2 / Fold change vs veh, N4BP2L2 / RFU, ARFIP1 / Fold change vs veh, ARFIP1 / RFU, FAM179B / Fold change vs veh, FAM179B / RFU, BCL10 / Fold change vs veh, BCL10 / RFU, UHRF1BP1L / Fold change vs veh, UHRF1BP1L / RFU, BET1 / Fold change vs veh, BET1 / RFU, CNOT2 / Fold change vs veh, CNOT2 / RFU, ZNF268 / Fold change vs veh, ZNF268 / Fold change vs veh, ZNF507 / RFU, DGCR2 / Fold change vs veh, DGCR2 / RFU, WDSUB1 / Fold change vs veh, WDSUB1 / Fold change vs veh, HSP90B1 /// MIR3652 / RFU, ADSS / Fold change vs veh, ADSS / RFU, GK / Fold change vs veh, GK / RFU, ZNF148 / Fold change vs veh, ZNF148 / RFU, TAF9 / Fold change vs veh, TAF9 / RFU, SLC1A5 / Fold change vs veh, SLC1A5 / RFU, SLMO2 / Fold change vs veh, SLMO2 / RFU, ABCC4 / Fold change vs veh, ABCC4 / RFU, LOC101060439 /// RAP1B / Fold change vs veh, LOC101060439 /// RAP1B / RFU, RFX7 / Fold change vs veh, RFX7 / RFU, GTPBP10 / Fold change vs veh, GTPBP10 / RFU, CNEP1R1 / Fold change vs veh, CNEP1R1 / RFU, BIVM-ERCC5 /// ERCC5 / Fold change vs veh, BIVM-ERCC5 /// ERCC5 / RFU, ILF3 / Fold change vs veh, ILF3 / RFU 11762660_at / Fold change /veh 11762660_at / RFU VCAN (11757783_s_at) / Fold change /veh VCAN (11757783_s_at) / RFU DDX43 (11728927_at) / Fold change /veh DDX43 (11728927_at) / RFU KRT8 (11758188_x_at) / Fold change /veh KRT8 (11758188_x_at) / RFU NKD1 (11759106_at) / Fold change /veh NKD1 (11759106_at) / RFU SRD5A1 (11742802_a_at) / Fold change /veh SRD5A1 (11742802_a_at) / RFU TPSAB1 /// TPSB2 (11721975_s_at) / Fold change /veh TPSAB1 /// TPSB2 (11721975_s_at) / RFU GSTM3 (11746129_a_at) / Fold change /veh GSTM3 (11746129_a_at) / RFU IL23R (11737362_x_at) / Fold change /veh IL23R (11737362_x_at) / RFU TMEM51 (11727254_a_at) / Fold change /veh TMEM51 (11727254_a_at) / RFU PIWIL2 (11732686_x_at) / Fold change /veh PIWIL2 (11732686_x_at) / RFU ORM1 (11744905_x_at) / Fold change /veh ORM1 (11744905_x_at) / RFU CCDC152 (11743942_at) / Fold change /veh CCDC152 (11743942_at) / RFU ECM1 (11717891_a_at) / Fold change /veh ECM1 (11717891_a_at) / RFU IL23R (11748794_a_at) / Fold change /veh IL23R (11748794_a_at) / RFU TNFAIP8L3 (11732012_x_at) / Fold change /veh TNFAIP8L3 (11732012_x_at) / RFU MBOAT4 (11741988_at) / Fold change /veh MBOAT4 (11741988_at) / RFU 11764193_at / Fold change /veh 11764193_at / RFU TMEM53 (11763286_at) / Fold change /veh TMEM53 (11763286_at) / RFU MAGEB2 (11727129_at) / Fold change /veh MAGEB2 (11727129_at) / RFU TMEM200A (11744735_a_at) / Fold change /veh TMEM200A (11744735_a_at) / RFU CCDC152 (11751479_a_at) / Fold change /veh CCDC152 (11751479_a_at) / RFU FAM211A (11726209_a_at) / Fold change /veh FAM211A (11726209_a_at) / RFU RGS16 (11746705_a_at) / Fold change /veh RGS16 (11746705_a_at) / RFU VCAN (11755009_s_at) / Fold change /veh VCAN (11755009_s_at) / RFU RHOB (11743442_s_at) / Fold change /veh RHOB (11743442_s_at) / RFU RGS16 (11720943_a_at) / Fold change /veh RGS16 (11720943_a_at) / RFU RGS16 (11720944_at) / Fold change /veh RGS16 (11720944_at) / RFU, VPS4B / Fold change vs veh, VPS4B / RFU, CREB1 / Fold change vs veh, CREB1 / RFU, DNAJC13 / Fold change vs veh, DNAJC13 / RFU, GNAQ / Fold change vs veh, GNAQ / RFU, CDK5R1 / Fold change vs veh, CDK5R1 / RFU, ZRANB3 / Fold change vs veh, ZRANB3 / RFU, CUL4A / Fold change vs veh, CUL4A / RFU, CCNY / Fold change vs veh, CCNY / RFU, UFL1 / Fold change vs veh, UFL1 / RFU, COG3 / Fold change vs veh, COG3 / RFU, DIAPH2 / Fold change vs veh, DIAPH2 / RFU, SKA2 / Fold change vs veh, SKA2 / RFU, AFF3 / Fold change vs veh, AFF3 / RFU, LMF1 / Fold change vs veh, LMF1 / RFU, IPO11 / Fold change vs veh, IPO11 / RFU, DFFB / Fold change vs veh, DFFB / RFU, FOXP1 / Fold change vs veh, FOXP1 / RFU, CARD8 / Fold change vs veh, CARD8 / RFU, STRN3 / Fold change vs veh, STRN3 / RFU, ADK / Fold change vs veh, ADK / RFU, RASSF2 / Fold change vs veh, RASSF2 / RFU, WIPF1 / Fold change vs veh, WIPF1 / RFU, LARP1B / Fold change vs veh, LARP1B / RFU, RASA1 / Fold change vs veh, RASA1 / RFU, RB1 / Fold change vs veh, RB1 / RFU, PPFIA1 / Fold change vs veh, PPFIA1 / RFU, MAT2A / Fold change vs veh, MAT2A / RFU, CCT5 / Fold change vs veh, CCT5 / RFU, WDR92 / Fold change vs veh, WDR92 / RFU, CUX1 / Fold change vs veh, CUX1 / RFU, TTC7A / Fold change vs veh, TTC7A / RFU, TMEM135 / Fold change vs veh, TMEM135 / RFU, DEPTOR / Fold change vs veh, DEPTOR / RFU, CPM / Fold change vs veh, CPM / RFU, DNAJB6 / Fold change vs veh, DNAJB6 / RFU, CACNA2D3 / Fold change vs veh, CACNA2D3 / RFU, DTX4 / Fold change vs veh, DTX4 / RFU, TFCP2 / Fold change vs veh, TFCP2 / RFU, GMCL1 /// GMCL1P1 / Fold change vs veh, GMCL1 /// GMCL1P1 / RFU, AEBP2 / Fold change vs veh, AEBP2 / RFU, SNHG1 /// SNORD22 /// SNORD25 /// SNORD26 /// SNORD27 /// SNORD28 /// SNORD29 /// SNORD31 / Fold change vs veh, SNHG1 /// SNORD22 /// SNORD25 /// SNORD26 /// SNORD27 /// SNORD28 /// SNORD29 /// SNORD31 / Fold change (Aza/veh), C12orf56 (ProbeSet 11735607_a_at) / Fold change (ACY-1035/veh), C12orf56 (ProbeSet 11735607_a_at) / Fold change (Aza/veh), FGFR1OP (ProbeSet 11751329_s_at) / Fold change (ACY-1035/veh), FGFR1OP (ProbeSet 11751329_s_at) / Fold change (Aza/veh), VPS36 (ProbeSet 11739960_a_at) / Fold change (ACY-1035/veh), VPS36 (ProbeSet 11739960_a_at) / RFU SYPL1 (11715823_x_at) / Fold change /veh SYPL1 (11715823_x_at) / RFU IGFBP7 (11715501_s_at) / Fold change /veh IGFBP7 (11715501_s_at) / RFU REEP3 (11722064_at) / Fold change /veh REEP3 (11722064_at) / RFU IGLL1 (11728026_x_at) / Fold change /veh IGLL1 (11728026_x_at): dose or concentration left out as unconfirmed
Details: ProbeSet 11734937_a_at; LIST B

In the case of `Nc1ncn([C@@H]2O[C@H](CO)[C@@H](O)[C@H]2O)c(=O)n1` [azacitidine], the “Fold change vs veh, CNOT2” value is reported as 0.93.
